Here are results for 21 compounds from patent US9206130B2, “Quinoline derivatives as AXL kinase inhibitors” (Max-Planck-Gesellschaft zur Förderung der Wissenschaften …, priority 2008, dated 2015).

The target of series [1] is T1, wild type AXL (wtAXL) receptor tyrosine kinase (Homo sapiens, UniProt P30530).
T1 construct: WtAXL cDNA was cloned into vector pLXSN(ESK) and transfected into Phoenix E packaging cells; expressed in transfected cells; host or cells: NIH3T3 N7 mouse fibroblasts, retrovirally infected (clone 22)
T1 sequence (P30530 26-894): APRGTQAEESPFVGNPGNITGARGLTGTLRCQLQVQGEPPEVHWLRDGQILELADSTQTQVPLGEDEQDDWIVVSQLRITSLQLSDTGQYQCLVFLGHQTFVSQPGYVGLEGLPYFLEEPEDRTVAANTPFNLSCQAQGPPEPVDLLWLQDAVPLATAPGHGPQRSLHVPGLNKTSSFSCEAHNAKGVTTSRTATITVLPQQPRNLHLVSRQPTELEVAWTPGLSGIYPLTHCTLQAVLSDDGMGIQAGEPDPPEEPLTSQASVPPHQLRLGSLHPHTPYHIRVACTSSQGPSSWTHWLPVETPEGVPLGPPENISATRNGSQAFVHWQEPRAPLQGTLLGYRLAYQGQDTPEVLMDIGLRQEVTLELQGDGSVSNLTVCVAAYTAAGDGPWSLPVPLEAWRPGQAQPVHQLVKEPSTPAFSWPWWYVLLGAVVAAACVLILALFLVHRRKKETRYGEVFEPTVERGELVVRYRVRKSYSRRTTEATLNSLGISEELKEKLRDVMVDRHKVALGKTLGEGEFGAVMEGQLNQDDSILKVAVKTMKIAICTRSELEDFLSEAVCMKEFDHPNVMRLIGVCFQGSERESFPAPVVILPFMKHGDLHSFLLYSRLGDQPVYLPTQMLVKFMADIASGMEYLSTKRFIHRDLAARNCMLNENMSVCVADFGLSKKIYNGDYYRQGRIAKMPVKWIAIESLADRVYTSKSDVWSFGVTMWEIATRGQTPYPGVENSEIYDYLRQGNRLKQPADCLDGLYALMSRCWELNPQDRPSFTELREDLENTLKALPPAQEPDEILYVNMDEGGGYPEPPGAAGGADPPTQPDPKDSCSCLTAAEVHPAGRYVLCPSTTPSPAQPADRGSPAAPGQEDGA
Nature of the series: NIH-3T3-AXL cellular tyrosine kinase assay (inhibition of AXL phosphorylation). In kind it is cell-based. Conditions: AXL phosphorylation in NIH-3T3-AXL (clone 22) cells, serum-depleted, 2 h with compound, immunoprecipitation / anti-phosphotyrosine blot. The essentials: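 NIH3T3 clones stably expressing human wtAXL (puromycin-selected) were exposed to serially diluted compounds for 2 h. AXL was immunoprecipitated from lysates with anti-AXL antibody, and phosphorylation detected by anti-phosphotyrosine (4G10) western blot with ECL.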

pIC50: −log10 of the molar value.

Regarding `COc1cc2nccc(Oc3ccc(NS(=O)(=O)c4cc5ccccc5s4)c(C)c3)c2cc1OC` [Example A94, Benzo[b]thiophene-2-sulfonic acid [4-(6,7-dimethoxy-quinolin-4-yloxy)-2-methyl-phenyl]-amide], the melting point lay within 255 to 257 °C. Further, the pIC50 in series [1] was less than 5.00.

Consider `Cc1cc(Oc2ccc(NS(=O)(=O)c3c(F)cccc3F)c(F)c2)c2cc(F)ccc2n1` [Example B6, 2,6-Difluoro-N-[2-fluoro-4-(6-fluoro-2-methyl-quinolin-4-yloxy)-phenyl]-benzenesulfonamide], for which the melting point was 188 to 190 °C. In addition, in series [1], the pIC50 is less than 5.00.

`COc1cc2nccc(Oc3ccc(NS(=O)(=O)c4ccc(OC)c5ccccc45)cc3F)c2cc1OC` [Example A135, 4-Methoxy-naphthalene-1-sulfonic acid [4-(6,7-dimethoxy-quinolin-4-yloxy)-3-fluoro-phenyl]-amide] registered a melting point of 145 to 147 °C. The pIC50 in series [1] was 6.09.

For the compound `COc1cc2c(Oc3ccc(NS(=O)(=O)c4cccc(-c5ccccc5)c4)c(C)c3)ccnc2cc1OCCN1CCOCC1` [Example D07, Biphenyl-3-sulfonic acid {4-[6-methoxy-7-(2-morpholin-4-yl-ethoxy)-quinolin-4-yloxy]-2-methyl-phenyl}-amide], the melting point was 105 to 107 °C. For the same compound, in series [1], the pIC50 was 6.46.

With `COc1cc2nccc(Oc3ccc(NS(=O)(=O)c4ccc(Br)cc4C(F)(F)F)c(F)c3)c2cc1OC` [Example A48, 4-Bromo-N-[4-(6,7-dimethoxy-quinolin-4-yloxy)-2-fluoro-phenyl]-2-trifluoromethyl-benzenesulfonamide], the melting point is 242 to 244 °C. For the same compound, the pIC50 in series [1] is 5.82.

In the case of `COc1cc2c(Oc3ccc(NS(=O)(=O)c4ccccc4C#N)cc3F)ccnc2cc1OCCN1CCOCC1` [Example D27, 2-Cyano-N-{3-fluoro-4-[6-methoxy-7-(2-morpholin-4-yl-ethoxy)-quinolin-4-yloxy]-phenyl}-benzenesulfonamide], the melting point fell in the range of 193 to 196 °C. Moreover, the pIC50 in series [1] is 6.11.

`Cc1cc(Oc2ccc(NS(=O)(=O)c3cnc(C)[nH]3)cc2F)c2cccc(C(F)(F)F)c2n1` [Example C13, 2-Methyl-3H-imidazole-4-sulfonic acid [3-fluoro-4-(2-methyl-8-trifluoromethyl-quinolin-4-yloxy)-phenyl]-amide] showed a melting point of 258 to 259 °C. For the same compound, the negative-log IC50 (pIC50) in series [1] is less than 6.00.

`COc1cc2nccc(Oc3ccc(NS(=O)(=O)c4cc(F)ccc4F)cc3C)c2cc1OC` [Example A131, N-[4-(6,7-Dimethoxy-quinolin-4-yloxy)-3-methyl-phenyl]-2,5-difluoro-benzenesulfonamide] returned a melting point of 239 to 240 °C. For the same compound, the pIC50 in series [1] was 5.77.

For the compound `Cc1cc(Oc2ccc(NS(=O)(=O)c3ccc(Cl)s3)cc2)c2cc(F)ccc2n1` [Example B18, 5-Chloro-thiophene-2-sulfonic acid [4-(6-fluoro-2-methyl-quinolin-4-yloxy)-phenyl]-amide], the melting point lay within 170 to 172 °C. Further, the pIC50 in series [1] was less than 5.00.

In turn, `COc1cc2nccc(Oc3ccc(NS(=O)(=O)c4cc(Cl)c(O)c(Cl)c4)cc3)c2cc1OC` [Example A155, 3,5-Dichloro-N-[4-(6,7-dimethoxy-quinolin-4-yloxy)-phenyl]-4-hydroxy-benzenesulfonamide] yielded a melting point greater than 260 °C. Further, in series [1], the pIC50 was less than 5.52.

For the compound `COc1cc2c(Oc3ccc(NS(=O)(=O)c4cc(F)ccc4F)c(C)c3)ccnc2cc1OCCN1CCOCC1` [Example D09, 2,5-Difluoro-N-{4-[6-methoxy-7-(2-morpholin-4-yl-ethoxy)-quinolin-4-yloxy]-2-methyl-phenyl}-benzenesulfonamide], the melting point was 195 to 196 °C. In addition, in series [1], the negative-log IC50 (pIC50) was 5.61.

With `COc1cc2nccc(Oc3ccc(NS(=O)(=O)c4ccc(Br)cc4OC(F)(F)F)cc3F)c2cc1OC` [Example A146, 4-Bromo-N-[4-(6,7-dimethoxy-quinolin-4-yloxy)-3-fluoro-phenyl]-2-trifluoromethoxy-benzenesulfonamide], the melting point lay within 226 to 228 °C. For the same compound, the pIC50 in series [1] is 6.05.

For `COc1cc2nccc(Oc3ccc(NS(=O)(=O)c4ccccc4OC(F)(F)F)cc3)c2cc1OC` [Example A114, N-[4-(6,7-Dimethoxy-quinolin-4-yloxy)-phenyl]-2-trifluoromethoxy-benzenesulfonamide], the melting point was in the range of 222 to 223 °C. Moreover, the negative logarithm of the IC50 (pIC50) in series [1] is 6.33.

Compound `COc1cccc(S(=O)(=O)Nc2ccc(Oc3ccnc4cc(OC)c(OC)cc34)cc2F)c1` [Example A27, N-[4-(6,7-Dimethoxy-quinolin-4-yloxy)-2-fluoro-phenyl]-3-methoxy-benzenesulfonamide] yielded a melting point of 224 to 225 °C. The pIC50 in series [1] was 5.60.

Take `CCn1cc(S(=O)(=O)Nc2ccc(Oc3ccnc4cc(OC)c(OC)cc34)cc2F)cn1` [Example A31, 1-Ethyl-1H-pyrazole-4-sulfonic acid [4-(6,7-dimethoxy-quinolin-4-yloxy)-2-fluoro-phenyl]-amide]: the melting point lay in the range of 211 to 213 °C. The pIC50 in series [1] is less than 5.00.

`COc1cc2c(Oc3ccc(NS(=O)(=O)c4cccc(-c5ccccc5)c4)cc3F)ccnc2cc1OCCN1CCOCC1` [Example D04, Biphenyl-3-sulfonic acid {3-fluoro-4-[6-methoxy-7-(2-morpholin-4-yl-ethoxy)-quinolin-4-yloxy]-phenyl}-amide] returned a melting point of 103 to 104 °C. Moreover, in series [1], the pIC50 was 6.49.

For `COc1cc2nccc(Oc3ccc(NS(=O)(=O)c4ccc(Oc5ccccc5)cc4)c(F)c3)c2cc1OC` [Example A57, N-[4-(6,7-Dimethoxy-quinolin-4-yloxy)-2-fluoro-phenyl]-4-phenoxy-benzenesulfonamide], the melting point fell in the range of 202 to 204 °C. Further, the pIC50 in series [1] was less than 5.52.

Take `COc1cc2nccc(Oc3ccc(NS(=O)(=O)c4ccc(Br)c(Cl)c4)cc3OC)c2cc1OC` [Example A122, 4-Bromo-3-chloro-N-[4-(6,7-dimethoxy-quinolin-4-yloxy)-3-methoxy-phenyl]-benzenesulfonamide]: the melting point fell in the range of 110 to 113 °C. Also, the pIC50 in series [1] was less than 5.00.

With `COc1cc2nccc(Oc3ccc(NS(=O)(=O)c4ccccc4OC)c(F)c3)c2cc1OC` [Example A52, N-[4-(6,7-Dimethoxy-quinolin-4-yloxy)-2-fluoro-phenyl]-2-methoxy-benzenesulfonamide], the melting point fell in the range of 213 to 215 °C. Moreover, the pIC50 in series [1] was less than 5.52.

Regarding `COc1cc2nccc(Oc3ccc(NS(=O)(=O)c4cccc5ccccc45)cc3C)c2cc1OC` [Example A77, Naphthalene-1-sulfonic acid [4-(6,7-dimethoxy-quinolin-4-yloxy)-3-methyl-phenyl]-amide], the melting point fell in the range of 118 to 120 °C. The pIC50 in series [1] is less than 5.00.

Turning to `COc1cc2nccc(Oc3ccc(NS(=O)(=O)c4cc(Cl)ccc4OC)cc3)c2cc1OC` [Example A68, 5-Chloro-N-[4-(6,7-dimethoxy-quinolin-4-yloxy)-phenyl]-2-methoxy-benzenesulfonamide], the melting point fell in the range of 255 to 257 °C. For the same compound, in series [1], the pIC50 is less than 5.00.

As usually defined, the pIC50 is the IC50 on a negative log10 scale, so that one unit is a factor of ten. Broadly, the melting point is the temperature of the solid-liquid transition.
